Laboratory results taken from patent publication US11607404B2, “Combinations of RAD51 and PARP inhibitors” (Cyteir Therapeutics, Inc., priority 2019, dated 2023).
Where two headings read alike, the source gives them in different places.

Experiments:
[1] = test system: Daudi cell line (AID positive); test: Primary screening cell killing assay (Cell-Titer Glo, Day 7); assay type: cell-based; details: Homo sapiens, 168 h; Daudi cells (AID positive), cell death on Day 7; read-out: AID+ EC50
Experimental: (§1) Primary screening was a phenotypic screen that utilized the synthetic lethal interaction between AID and RAD51 to identify compounds that were both potent and on target. AID expressing cells are dependent upon RAD51 for survival; inhibiting RAD51 in AID positive cells results in a cytotoxic effect.
The first step was to set up a cell killing assay in the Daudi cell line (AID positive). A 96 well u-bottom plate was prepared by writing the experiment number, plate number, date and initials in the top right corner of the plate lid. With a sterile 300 ml reservoir, and 25 ml serological pipette, evaporation buffer media was pipetted into reservoir in 25 ml increments. Using the liquid handler, 150 ul of evaporation buffer media was pipetted from reservoir into rows A and H, and Columns 1 and 12 of the 96 well u-bottom plate. Cell cultures were counted to obtain the density of cells per ml, and the culture viability. The cell density information was used to obtain 1,000,000 cells from culture using a 5 mL serological pipette into an epi tube. The cell density information from the culture was used to calculate the number of cells and volume of media needed for the assay to seed 1250 cells in 130 ul of media per available culture well in the 96 well u-bottom plate. Rows B through F were used for cells (50 wells in total), with row G left for an empty media control. The calculation was overestimated by 10 mL to account for the dead volume in the 300 ml reservoir. Once the media volume was calculated, the appropriate volume of media was pipetted in 25 mL increments into the 250 mL bottle using a 25 mL serological pipette. The 250 ml bottle was capped tightly, and placed into a 37° C. water bath for 2 minutes. While the culture media was warming, 10 mL of fresh media was pipetted from the 500 mL culture media bottle into a sterile 25 mL reservoir. Using the Eppendorf multichannel pipette, 130 ul of media was piptted from the 25 mL reservoir into row G of the 96 well u-bottom plate. Once the 250 mL bottle of media was warmed, the volume of culture needed was pipetted into the bottle, and mixed gently with a 25 mL serological pipette as to not create bubbles, and then the contents of the bottle were pipetted into a new 300 mL reservoir. Using the liquid handler, 130 ul of culture was pipetted from the 300 mL reservoir into rows B through F of the 96 well u-bottom plate. Once the culture was added, the plate was placed into a 37° C. incubator until the compound master plate was prepared for use.
Two 96 well u-bottom plates were prepared by writing the master plate name in the upper right corner of the plate lid. Labeling one DMSO master and the other Media Master. The compounds of interest were obtained from the laboratory freezer, and placed into a 25 well storage box with a lid, and set the box aside. The compounds were vortexed after thawing but before use. Using an automatic multichannel pipette, 20 ul of 100% DMSO was pipetted into wells B3-B11 through G3-G11 of the DMSO master plate. For each compound on the master plate, 50 ul of the compound were pipetted in the appropriate well of row 2 (reference plate map to determine appropriate well). A serial dilution was prepared beginning by aspirating 20 ul from row 2 and mixing with row 3, repeating until row 11 was reached. Using the liquid handler, 194 ul of Daudi media was dispensed into wells B2-B11 through G2-G11 of the Media master plate. Using the liquid handler, 6 ul from the DMSO master plate was aspirated and dispensed into the media master plate, mixing 100 ul twice.
Compounds from master plate were then added to the culture plate. The culture plates were removed from the incubator, and set inside the biosafety cabinet. Using a liquid handler, 20 ul from wells B2 to B11 through G2 to G11 of master plate were aspirated, and dispensed into wells B2 to B11 through G2 to G11 of culture plate. This set was continued with each culture plate. […]

[2] = test system: WI-38 cells (AID negative); test: Primary screening cell killing assay repeated in AID negative cells; assay type: cell-based, Human; details: WI-38 cells (AID negative), read-out: AID− EC50
Experimental: as §1
Percent cell death and EC50 values were calculated by comparing the cell viability of the compound treated wells to the non-treated wells. Normalized RLU values were obtained by subtracting the media well values from each of the wells in the same column, and then dividing that value by the DMSO treated cells values. The percent kill was then calculated by subtracting the normalized RLU value from 1 and multiplying by 100. The average normalized percent kill value and standard error of the mean was then calculated. The kill values were then inputted into Prism with the corresponding standard errors. In Prism a non-linear regression line was plotted with the data points using a semi-log scale, and the EC50 value was calculated.
The activity of the claimed compounds was measured in a variety of cell lines with different expression levels of activation induced cytidine deaminase (AICDA). The potency assay was repeated in all of the listed cell lines and the EC50 values recorded.

[3] = Bi-directional Caco-2 permeability; assay type: in vitro ADME; details: human; for Papp A→B / Papp B→A: Caco-2, 37 C, up to 90 minutes; for Papp A→B: apical to basolateral, read-out: AB Papp (cm/sec × 10^6); for Papp B→A: basolateral to apical, read-out: BA Papp (cm/sec × 10^6); for efflux ratio: Caco-2 efflux ratio, read-out: BA/AB Ratio
Experimental: Bi-directional Caco-2 permeability was assayed. Caco-2 cells were seeded onto permeable polycarbonate supports and allowed to differentiate for about 3 weeks prior to being used in the assays. The cells were then exposed to the compounds from either the apical or basolateral sides and incubated at 37 C for up to 90 minutes under light agitation. Compound transport was then measured using LC/MS/MS analysis at 30, 60, and 90 minutes.

[4] = Caco-2, apical to basolateral, read-out: AB Recovery %
[5] = Caco-2, basolateral to apical, read-out: BA Recovery %

SMILES: CC(C)OC(=O)NC1CCC(c2ncc(-c3ccc(NC(=O)N[C@@H](C)c4ccccn4)cc3S(=O)(=O)NC(C)(C)C)s2)CC1 (stereo partly shown) [Compound 32]
- EC50 [1]: ≤ 0.1 µM
- EC50 ([2]; Homo sapiens): > 1 µM

SMILES: CC(C)OC(=O)NC1CCC(c2ncc(-c3ccc(NC(=O)NCc4cccnc4)cc3S(=O)(=O)NC(C)(C)C)s2)CC1 (stereo not shown) [Compound 25]
- EC50 [1]: ≤ 0.1 µM

SMILES: CC(C)OC(=O)Nc1ccc(-c2sc(C3CCC(NC(=O)OC(C)C)CC3)nc2F)c(S(=O)(=O)NC(C)(C)C)c1 (stereo not shown) [Compound 58]
- EC50 [1]: ≤ 1 µM

SMILES: CC(C)OC(=O)NC1CCC(c2ncc(-c3ccc(NC(=O)NCc4ccc(O)cc4)cc3S(=O)(=O)NC(C)(C)C)s2)CC1 (stereo not shown) [Compound 73]
- EC50 [1]: ≤ 0.1 µM
- EC50 ([2]; Homo sapiens): > 1 µM

SMILES: CC(C)OC(=O)NC1CCC(c2ncc(-c3ccc(NC(=O)OC[C@H]4CCCN4C)cc3S(=O)(=O)NC(C)(C)C)s2)CC1 (stereo partly shown) [Compound 34]
- EC50 [1]: ≤ 1 µM
- recovery at 90 min [3, 4]: 98.2%
- recovery at 90 min [3, 5]: 96.8%

SMILES: CC(C)(C)NS(=O)(=O)c1cc(NC(=O)NCc2ccccn2)ccc1-c1cnc(C2CCC(NC(=O)OC(C)(C)C)CC2)s1 (stereo not shown) [Compound 45]
- EC50 [1]: ≤ 0.1 µM
- recovery at 90 min [3, 4]: 73.6%
- recovery at 90 min [3, 5]: 84.4%
- Papp A→B [3]: 7.6 ×10⁻⁶ cm/s
- Papp B→A [3]: 10.8 ×10⁻⁶ cm/s
- efflux ratio [3]: 1.4

SMILES: CC(C)OC(=O)NC1CCC(c2ncc(-c3ccc(NC(=O)NCc4ccccc4F)cc3S(=O)(=O)NC(C)(C)C)s2)CC1 (stereo not shown) [Compound 28]
- EC50 [1]: ≤ 0.1 µM
- recovery at 90 min [3, 4]: 66.9%
- recovery at 90 min [3, 5]: 81%

SMILES: CC(C)NC(=O)OC1CCC(c2ncc(-c3ccc(NC(=O)OC(C)C)cc3S(=O)(=O)NC(C)(C)C)s2)CC1 (stereo not shown) [Compound 20]
- EC50 [1]: > 1 µM
- recovery at 90 min [3, 4]: 44.8%
- recovery at 90 min [3, 5]: 96.6%
- Papp A→B [3]: 9.4 ×10⁻⁶ cm/s
- Papp B→A [3]: 10.4 ×10⁻⁶ cm/s
- efflux ratio [3]: 1.1

SMILES: CC(C)OC(=O)Nc1ccc(-c2cnc(C3CCC(NC(=O)OC4CCCC4)CC3)s2)c(S(=O)(=O)NC(C)(C)C)c1 (stereo not shown) [Compound 7]
- EC50 [1]: ≤ 1 µM
- recovery at 90 min [3, 4]: 55.9%
- recovery at 90 min [3, 5]: 92%
- Papp A→B [3]: 1.7 ×10⁻⁶ cm/s
- Papp B→A [3]: 2.1 ×10⁻⁶ cm/s
- efflux ratio [3]: 1.2

SMILES: CC(C)OC(=O)Nc1ccc(-c2cnc(C34CCC(NC(=O)OC(C)C)(CC3)CC4)s2)c(S(=O)(=O)NC(C)(C)C)c1 [Compound 17]
- EC50 [1]: ≤ 1 µM

SMILES: CN1CCC[C@@H]1COC(=O)NC1CCC(c2ncc(-c3ccc(NC(=O)NCc4ccccc4)cc3S(=O)(=O)NC(C)(C)C)s2)CC1 (stereo partly shown) [Compound 11]
- EC50 [1]: ≤ 1 µM

SMILES: CC(C)OC(=O)NC1CCC(c2ncc(-c3ccc(NC(=O)NCc4ccncc4)cc3S(=O)(=O)NC(C)(C)C)s2)CC1 (stereo not shown) [Compound 22]
- EC50 [1]: ≤ 1 µM
- recovery at 90 min [3, 4]: 83.1%
- recovery at 90 min [3, 5]: 89%
- Papp A→B [3]: 1.1 ×10⁻⁶ cm/s
- Papp B→A [3]: 21 ×10⁻⁶ cm/s
- efflux ratio [3]: 18.7

SMILES: CC(C)OC(=O)Nc1ccc(-c2cnc(C3CC[C@@H](NC(=O)OC(C)C)CO3)s2)c(S(=O)(=O)NC(C)(C)C)c1 (mixture of isomers) [Compound 60]
- EC50 [1]: ≤ 1 µM

SMILES: COc1cc(NC(=O)OC(C)C)cnc1-c1ncc(-c2ccc(NC(=O)OCC3CCNCC3)cc2S(=O)(=O)NC(C)(C)C)s1 [Compound 56]
- EC50 [1]: ≤ 1 µM

SMILES: CC(C)OC(=O)NC1CCC(c2ncc(-c3ccc(NC(=O)OC[C@H]4CCCN4)cc3S(=O)(=O)NC(C)(C)C)s2)CC1 (stereo partly shown) [Compound 36]
- EC50 [1]: ≤ 1 µM

SMILES: CC(C)OC(=O)NC1CCC(c2ncc(-c3ccc(NC(=O)O[C@H](C)c4ccccc4)cc3S(=O)(=O)NC(C)(C)C)s2)CC1 (stereo partly shown) [Compound 43]
- EC50 [1]: ≤ 1 µM
- EC50 ([2]; Homo sapiens): > 1 µM

SMILES: CC(C)OC(=O)NC1CCC(c2ncc(-c3ccc(NC(=O)NCc4ccc(F)cc4)cc3S(=O)(=O)NC(C)(C)C)s2)CC1 (stereo not shown) [Compound 23]
- EC50 [1]: ≤ 0.1 µM

SMILES: CC(C)OC(=O)N[C@@H]1CC[C@@H](c2ncc(-c3ccc(NC(=O)NCc4ccccc4)cc3S(=O)(=O)NC(C)(C)C)s2)OC1 [Compound 59A]
- EC50 [1]: ≤ 1 µM

SMILES: CC(C)OC(=O)NC1CCC(c2ncc(-c3ccc(NC(=O)N[C@H](C)c4ccccc4)cc3S(=O)(=O)NC(C)(C)C)s2)CC1 (stereo partly shown) [Compound 24]
- EC50 [1]: ≤ 0.1 µM
- EC50 ([2]; Homo sapiens): > 1 µM

SMILES: CC(C)NC(=O)OC1CCC(c2ncc(-c3ccc(NC(=O)NCc4ccccc4)cc3S(=O)(=O)NC(C)(C)C)s2)CC1 (stereo not shown) [Compound 21]
- EC50 [1]: ≤ 0.1 µM
- recovery at 90 min [3, 4]: 58.6%
- recovery at 90 min [3, 5]: 78.3%

SMILES: C=S(=O)(NC(C)(C)C)c1cc(NC(=O)NCc2ccccc2)ccc1-c1cnc(N2CCC(NC(=O)OC(C)C)CC2)s1 (stereo not shown) [Compound 68]
- EC50 [1]: ≤ 1 µM

SMILES: CC(C)OC(=O)NC1CCC(c2ncc(-c3ccc(NC(=O)OCC4CCNCC4)cc3S(=O)(=O)NC(C)(C)C)s2)CC1 (stereo not shown) [Compound 33]
- EC50 [1]: > 1 µM

SMILES: CC(C)OC(=O)Nc1ccc(-c2cnc(C3CCC(NC(=O)OC[C@@H]4CCCN4C)CC3)s2)c(S(=O)(=O)NC(C)(C)C)c1 (stereo partly shown) [Compound 9]
- EC50 [1]: ≤ 1 µM

SMILES: CC(C)OC(=O)NC1CCC(c2ncc(-c3ccc(NC(=O)OC[C@@H]4CCCN4)cc3S(=O)(=O)NC(C)(C)C)s2)CC1 (stereo partly shown) [Compound 37]
- EC50 [1]: ≤ 1 µM

SMILES: CC(C)OC(=O)Nc1ccc(-c2cnc(C3CCC(NC(=O)OC4COC4)CC3)s2)c(S(=O)(=O)NC(C)(C)C)c1 (stereo not shown) [Compound 48]
- EC50 [1]: ≤ 1 µM

SMILES: CC(C)OC(=O)N[C@H]1CC[C@@H](c2ncc(-c3ccc(NC(=O)NCc4ccccc4)cc3S(=O)(=O)NC(C)(C)C)s2)CC1 [Compound 66B]
- EC50 [1]: ≤ 1 µM

SMILES: CC(C)OC(=O)Nc1ccc(-c2cnc([C@H]3CC[C@H](NC(=O)OC(C)C)CO3)s2)c(S(=O)(=O)NC(C)(C)C)c1 [Compound 60B]
- EC50 [1]: ≤ 1 µM

SMILES: CC(C)OC(=O)Nc1ccc(-c2cnc([C@@H]3CC[C@@H](NC(=O)OC(C)C)CN3)s2)c(S(=O)(=O)NC(C)(C)C)c1 (relative stereo) [Compound 63]
- EC50 [1]: ≤ 1 µM

SMILES: CC(C)OC(=O)Nc1ccc(-c2cnc(C3CC(NC(=O)OC(C)C)C3)s2)c(S(=O)(=O)NC(C)(C)C)c1 (stereo not shown) [Compound 65]
- EC50 [1]: ≤ 1 µM

SMILES: CC(C)OC(=O)NC1CCC(c2ncc(-c3ccc(NC(=O)O[C@@H](C)c4ccccc4)cc3S(=O)(=O)NC(C)(C)C)s2)CC1 (stereo partly shown) [Compound 41]
- EC50 [2]: > 1 µM

SMILES: CC(C)OC(=O)NC1CCC(c2ncc(-c3ccc(NC(=O)OC[C@@H]4CCCN4C)cc3S(=O)(=O)NC(C)(C)C)s2)CC1 (stereo partly shown) [Compound 35]
- EC50 [1]: ≤ 1 µM
- recovery at 90 min [3, 4]: 98.8%
- recovery at 90 min [3, 5]: 108%

SMILES: CC(C)OC(=O)Nc1ccc(-c2cnc(C3CCC(NC(=O)OC(C)(C)C)CC3)s2)c(S(=O)(=O)NC(C)(C)C)c1 (stereo not shown) [Compound 44]
- EC50 [1]: > 1 µM
- recovery at 90 min [3, 4]: 36.2%
- recovery at 90 min [3, 5]: 69.4%
- Papp A→B [3]: 3.2 ×10⁻⁶ cm/s
- Papp B→A [3]: 4.2 ×10⁻⁶ cm/s
- efflux ratio [3]: 1.3

SMILES: CN1CCC[C@H]1COC(=O)N[C@H]1CC[C@H](c2ncc(-c3ccc(NC(=O)NCc4ccccc4)cc3S(=O)(=O)NC(C)(C)C)s2)CC1 [Compound 12]
- EC50 [1]: ≤ 1 µM
